Converted amounts (≈) assume the structure as drawn. Where two headings read alike, the source gives them in different places.
Experiments:
[1] = biological target: E. coli topoisomerase I (Escherichia coli (strain K12), UniProt P06612); test: biochemical; format: biochemical; settings: for PIC50 (pIC50 = −log IC50): experimental, converted from IC50
Protocol: (§1) Recombinant E. coli topoisomerase I and gyrase expressed in E. coli were purified as described previously.
E. coli Topoisomerase I Relaxation Activity Inhibition Assay
The relaxation activity of E. coli topoisomerase I was assayed in a buffer containing 10 mM Tris-HCl, pH 8.0, 50 mM NaCl, 0.1 mg/mL gelatin, and 0.5 mM MgCl2. Half microliter from the appropriate stock solutions of compounds dissolved in the solvent (DMSO) or the solvent alone (control) was mixed with 9.5 μL of the reaction buffer containing 10 ng of enzyme before the addition of 10 μL of reaction buffer containing 200 ng of supercoiled pBAD/Thio plasmid DNA purified by cesium chloride gradient as substrate. Following incubation at 37° C. for 30 min, the reactions were terminated by the addition of 4 μL of a stop buffer (50% glycerol, 50 mM EDTA, and 0.5% (v/v) bromophenol blue), and analyzed by agarose gel electrophoresis. The gels were stained in ethidium bromide and photographed under UV light.

[2] = biological target: E. coli DNA gyrase (Escherichia coli (strain K12), UniProt P0AES4+P0AES6); test: DNA gyrase supercoiling inhibition assay; format: biochemical; settings: supercoiling of relaxed DNA; read-out: Topoisomerase inhibitory activity (IC50) E. coli DNA gyrase (type IIA)
Protocol: as §1
The samples were incubated at 37° C. for 30 minutes before being terminated by the addition of a buffer containing 5% SDS, 0.25% bromophenol blue, and 25% glycerol. The reactions were then analyzed by agarose gel electrophoresis.

[3] = biological target: Human topoisomerase I (Homo sapiens (Human), UniProt P11387); test: Human topoisomerase I relaxation inhibition assay; format: biochemical; settings: read-out: Topoisomerase inhibitory activity (IC50) Human topo I (type IB)
Protocol: Human topoisomerase I relaxation assays were carried out with 0.5 U of enzyme in reaction buffer supplied by the manufacturer. The enzyme was mixed with the indicated concentration of compound dissolved before 200 ng of supercoiled pBAD/Thio plasmid DNA was added in the same buffer, for a final volume of 20 μL. Following incubation at 37° C. for 30 minutes, the reactions were terminated with a buffer containing 5% SDS, 0.25% bromophenol blue, and 25% glycerol, and analyzed by agarose gel electrophoresis.
Human topoisomerase I and topoisomerase IIα were purchased from TopoGen (Buena vista, CO, USA).

[4] = test system: E. coli Imp4213 (BAS3023); test: MIC, microdilution in Mueller-Hinton Broth; format: cell-based; settings: for MIC: Escherichia coli, read-out: Whole cell based antibacterial activity (MIC) E. coli Imp4213 (BAS3023), membrane permeable imp mutant; for Whole cell based antibacterial activity (MIC) E. coli Imp4213 (BAS3023): membrane permeable imp mutant
[5] = test system: E. coli (MG1655) WT; test: MIC, microdilution in Mueller-Hinton Broth; settings: wild type, read-out: Whole cell based antibacterial activity (MIC) E. coli (MG1655) WT
[6] = test system: M. tuberculosis (H37Rv); test: MIC, microplate Alamar blue assay (MABA); format: cell-based; settings: MABA, read-out: Whole cell based antibacterial activity (MIC) M. tuberculosis (H37Rv)
[7] = test system: Vero cells; test: Vero cell cytotoxicity assay; format: cell-based; settings: Chlorocebus sabaeus, Vero; cytotoxicity
Protocol: (§2) MICs of compounds against M. tuberculosis were determined by a modified microplate Alamar blue assay (MABA). Vero cell cytotoxicity assay was performed as previously described.

[8] = test system: mycobacterium smegmatis in biofilm; test: Biofilm viability by resazurin assay; format: cell-based
Protocol: Viability of the mycobacteria mycobacterium smegmatis in biofilm was measured by the resazurin assay.
The resazurin assay is a quick method using the resazurin dye as a bacterial respiration indicator to assay the antibacterial activity of various compounds used against bacterial biofilm growth. Such assay is well-known in the art. […] The biofilm was quantified indirectly by measuring the fluorescent, water-soluble resorufin product produced when resazurin is reduced by reactions associated with respiration.

[9] = test system: B. subtilis (ATCC 6633) WT; test: MIC, microdilution in Mueller-Hinton Broth; settings: read-out: Whole cell based antibacterial activity (MIC) B. subtilis (ATCC 6633) WT
[10] = biological target: Human topoisomerase IIα (Homo sapiens (Human), UniProt P11388); test: Human topoisomerase IIα decatenation inhibition assay; format: biochemical; settings: kDNA decatenation; read-out: Topoisomerase inhibitory activity (IC50) Human topo IIα (type IIA)
Protocol: Human topoisomerase I and topoisomerase IIα were purchased from TopoGen (Buena vista, CO, USA). […] The reactions were then analyzed by electrophoresis in 1% agarose gels containing […] ethidium bromide before being photographed under UV light.

[11] = Vero cell cytotoxicity assay; format: cell-based; settings: monkey
Protocol: as §2

[12] = Topoisomerase inhibitory activity (IC50) E. coli topo I (type IA), relaxation of supercoiled plasmid DNA
[13] = Mycobacterium tuberculosis, H37RV
[14] = Table 3, E. coli topoisomerase I, single values set for ranges and bounds, read-out: IC50 (μM) used for CoMFA
[15] = relaxation of supercoiled plasmid DNA, read-out: Topoisomerase inhibitory activity (IC50) E. coli topo I (type IA)

Sequence of Human topoisomerase I (P11387 whole entry): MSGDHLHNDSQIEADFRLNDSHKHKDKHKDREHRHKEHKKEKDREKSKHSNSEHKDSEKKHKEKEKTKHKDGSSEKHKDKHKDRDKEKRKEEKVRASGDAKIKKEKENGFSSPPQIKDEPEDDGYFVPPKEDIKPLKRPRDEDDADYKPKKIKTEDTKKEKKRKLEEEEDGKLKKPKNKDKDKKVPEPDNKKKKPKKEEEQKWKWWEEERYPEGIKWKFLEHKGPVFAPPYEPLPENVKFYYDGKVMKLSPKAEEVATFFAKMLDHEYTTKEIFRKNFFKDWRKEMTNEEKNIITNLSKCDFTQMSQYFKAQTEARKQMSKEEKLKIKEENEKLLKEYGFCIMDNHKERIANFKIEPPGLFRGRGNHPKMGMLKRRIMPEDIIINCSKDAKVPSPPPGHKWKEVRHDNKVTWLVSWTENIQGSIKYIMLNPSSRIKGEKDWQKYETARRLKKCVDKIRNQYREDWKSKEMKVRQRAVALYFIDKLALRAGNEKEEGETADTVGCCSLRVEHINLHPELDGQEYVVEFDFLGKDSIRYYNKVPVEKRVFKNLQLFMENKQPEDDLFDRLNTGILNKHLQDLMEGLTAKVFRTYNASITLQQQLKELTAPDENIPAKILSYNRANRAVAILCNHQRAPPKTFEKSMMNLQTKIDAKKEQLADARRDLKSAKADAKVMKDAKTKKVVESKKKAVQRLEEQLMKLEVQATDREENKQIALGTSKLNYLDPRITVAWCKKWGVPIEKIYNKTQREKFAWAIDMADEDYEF
Sequence of E. coli topoisomerase I (P06612 whole entry, looked up): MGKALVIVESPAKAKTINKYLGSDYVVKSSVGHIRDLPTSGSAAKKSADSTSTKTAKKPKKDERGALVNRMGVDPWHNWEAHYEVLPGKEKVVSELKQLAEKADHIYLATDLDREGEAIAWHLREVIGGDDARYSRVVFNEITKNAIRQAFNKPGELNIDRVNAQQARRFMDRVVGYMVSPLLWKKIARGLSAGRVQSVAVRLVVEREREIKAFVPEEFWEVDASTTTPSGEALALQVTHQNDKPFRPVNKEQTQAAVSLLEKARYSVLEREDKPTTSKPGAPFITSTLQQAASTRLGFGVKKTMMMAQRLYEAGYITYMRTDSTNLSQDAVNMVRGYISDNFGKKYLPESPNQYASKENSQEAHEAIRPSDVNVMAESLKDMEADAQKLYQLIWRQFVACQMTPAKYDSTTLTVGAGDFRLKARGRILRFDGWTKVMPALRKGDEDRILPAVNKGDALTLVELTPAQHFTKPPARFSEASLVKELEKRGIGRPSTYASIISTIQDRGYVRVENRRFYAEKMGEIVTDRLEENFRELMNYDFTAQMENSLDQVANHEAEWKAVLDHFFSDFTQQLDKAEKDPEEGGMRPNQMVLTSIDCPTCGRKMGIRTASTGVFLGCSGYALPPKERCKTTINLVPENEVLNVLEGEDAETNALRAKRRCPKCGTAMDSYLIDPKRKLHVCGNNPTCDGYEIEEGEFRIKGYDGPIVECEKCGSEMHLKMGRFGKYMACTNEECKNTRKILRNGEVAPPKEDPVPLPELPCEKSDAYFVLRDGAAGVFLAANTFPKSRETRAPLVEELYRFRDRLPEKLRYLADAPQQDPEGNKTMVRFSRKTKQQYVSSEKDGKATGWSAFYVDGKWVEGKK
Sequence of Human topoisomerase IIα (P11388 whole entry): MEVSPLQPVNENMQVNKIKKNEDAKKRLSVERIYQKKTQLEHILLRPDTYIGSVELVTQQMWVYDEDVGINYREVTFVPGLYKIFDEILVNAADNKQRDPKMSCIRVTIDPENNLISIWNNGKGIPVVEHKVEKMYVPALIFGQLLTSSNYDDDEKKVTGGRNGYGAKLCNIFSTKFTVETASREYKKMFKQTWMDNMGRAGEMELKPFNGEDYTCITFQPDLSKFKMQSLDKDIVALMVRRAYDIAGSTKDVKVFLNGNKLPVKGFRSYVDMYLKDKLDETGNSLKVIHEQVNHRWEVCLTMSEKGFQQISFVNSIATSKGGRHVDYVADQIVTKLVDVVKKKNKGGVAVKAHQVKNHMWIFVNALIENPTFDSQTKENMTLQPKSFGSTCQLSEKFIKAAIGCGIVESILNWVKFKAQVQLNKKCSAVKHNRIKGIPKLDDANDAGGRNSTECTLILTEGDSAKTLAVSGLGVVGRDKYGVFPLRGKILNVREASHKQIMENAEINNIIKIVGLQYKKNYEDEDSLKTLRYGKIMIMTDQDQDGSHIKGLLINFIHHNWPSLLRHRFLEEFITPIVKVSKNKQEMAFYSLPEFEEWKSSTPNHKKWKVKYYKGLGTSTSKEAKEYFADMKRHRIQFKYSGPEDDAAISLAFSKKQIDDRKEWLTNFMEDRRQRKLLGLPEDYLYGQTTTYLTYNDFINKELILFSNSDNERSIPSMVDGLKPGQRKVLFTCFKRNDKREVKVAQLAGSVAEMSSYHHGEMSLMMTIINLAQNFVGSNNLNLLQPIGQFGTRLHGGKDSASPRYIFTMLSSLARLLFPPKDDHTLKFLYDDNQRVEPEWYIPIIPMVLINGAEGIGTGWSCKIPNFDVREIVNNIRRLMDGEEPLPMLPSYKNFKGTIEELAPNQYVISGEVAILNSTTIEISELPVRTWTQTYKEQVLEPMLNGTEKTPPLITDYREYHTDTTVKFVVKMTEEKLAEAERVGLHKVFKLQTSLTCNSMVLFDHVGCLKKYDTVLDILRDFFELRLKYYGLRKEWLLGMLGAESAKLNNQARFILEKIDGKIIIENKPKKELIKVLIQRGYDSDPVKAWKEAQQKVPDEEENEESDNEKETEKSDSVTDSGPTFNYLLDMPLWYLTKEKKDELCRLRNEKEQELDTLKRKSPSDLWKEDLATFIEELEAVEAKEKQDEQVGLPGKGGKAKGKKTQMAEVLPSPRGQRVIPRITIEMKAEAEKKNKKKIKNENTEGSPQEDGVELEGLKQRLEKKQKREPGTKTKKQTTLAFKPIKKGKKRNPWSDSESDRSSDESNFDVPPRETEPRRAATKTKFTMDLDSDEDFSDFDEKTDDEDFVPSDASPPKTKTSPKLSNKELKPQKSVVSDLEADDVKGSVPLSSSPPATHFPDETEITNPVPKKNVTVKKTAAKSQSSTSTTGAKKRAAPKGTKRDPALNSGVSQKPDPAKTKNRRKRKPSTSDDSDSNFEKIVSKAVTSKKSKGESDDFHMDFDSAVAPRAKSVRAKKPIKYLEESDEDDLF

Row | Compound | PIC50 (pIC50 = −log IC50) [1] | IC50 [3] | MIC ([5]; Escherichia coli, MG1655) | IC50 [7] | Whole cell based antibacterial activity (MIC) E. coli Imp4213 (BAS3023) [4] | MIC [5] | also measured
1 | N[C@H]1CCN(c2c(F)cc3c(=O)c(C(=O)O)cn4c3c2Oc2cc([N+](=O)[O-])ccc2-4)C1 [Compound 16, (S)-6-(3-aminopyrrolidin-1-yl)-5-fluoro-9-nitro-3-oxo-3H-pyrido[3,2,1-kl]phenoxazine-2-carboxylic acid] | 6.32 | 7.8 µM | > 200 µM | > 50 µM | – | – | IC50 [1, 12]: 0.24 to 0.97 µM; IC50 [2]: 3.9 µM; MIC [4]: 1.56 µM (≈ 0.665 µg/mL); MIC [6, 13]: > 50 µM
2 | Nc1ccc2c(c1)Oc1c(NCCN3CCOCC3)c(F)cc3c(=O)c(C(=O)O)cn-2c13 [Compound 11h, 9-Amino-5-fluoro-6-((2-morpholinoethyl)amino)-3-oxo-3H-pyrido[3,2,1-kl]phenoxazine-2-carboxylic acid] | – | 7.8 to 15.6 µM | – | 43 µM | 0.78 µM | >200 µM | IC50 [2]: 15.6 to 31.2 µM; MIC [6]: 21.6 µM (≈ 9.51 µg/mL)
3 | O=C(O)c1cn(C2CC2)c2cc(N3CCNCC3)c(F)cc2c1=O [ciprofloxacin, reference compound] | – | – | – | – | – | – | concentration that abolishes 90% of viability in biofilm [8]: ≥ 24 µM
4 | CCCCCCNc1c(F)cc2c(=O)c(C(=O)O)cn3c2c1Oc1cc(N)ccc1-3 [Compound 11k, 9-Amino-5-fluoro-6-(hexylamino)-3-oxo-3H-pyrido[3,2,1-kl]phenoxazine-2-carboxylic acid] | 4.81 | – | > 200 µM | – | – | – | IC50 [1, 12]: 3.9 to 15.6 µM; MIC ([9]; Bacillus subtilis, ATCC6633, wild type): > 200 µM
5 | CC(C)(C)OC(=O)N[C@H]1CCN(c2c(F)cc3c(=O)c(C(=O)O)cn4c3c2Oc2cc(N)ccc2-4)C1 [Compound 15a, (S)-9-amino-6-(3-((tert-butoxycarbonyl)amino)pyrrolidin-1-yl)-S-fluoro-3-oxo-3H-pyrido[3,2,1-kl]phenoxazine-2-carboxylic acid] | 5.41 | – | – | – | 12.5 µM | >200 µM | IC50 [1, 14]: 3.9 µM; IC50 [1, 15]: 3.9 µM; MIC ([9]; wild type): 12.5 µM (≈ 6.21 µg/mL)
6 | CN1CCN(c2c(F)cc3c(=O)c(C(=O)O)cn4c3c2Oc2cc([N+](=O)[O-])ccc2-4)CC1 [Compound 10a, 5-Fluoro-6-(4-methylpiperazin-1-yl)-9-nitro-3-oxo-3H-pyrido[3,2,1-kl]phenoxazine-2-carboxylic acid] | 5.71 | 31.2 µM | 100 µM (≈ 44 µg/mL) | 95 µM | – | – | IC50 [10]: 250 to 500 µM; MIC [4]: 1.56 µM (≈ 0.687 µg/mL); MIC [6, 13]: 19 µM (≈ 8.37 µg/mL); selectivity ratio [11]: 5
7 | CCOC(=O)c1cn2c3c(c(F)c(F)cc3c1=O)Oc1cc(C(F)(F)F)ccc1-2 [Compound 6c, Ethyl 5,6-difluoro-3-oxo-9-(trifluoromethyl)-3H-pyrido[3,2, I-kl]phenoxazine-2-carboxylate] | 3.60 | – | – | – | >200 µM | >200 µM | activity against topoisomerase I when tested at 125 μM ([1]; 125 μM): inactive; IC50 [1, 14]: 250 µM; IC50 [1, 15]: > 125 µM; MIC ([9]; wild type): >200 µM
